# Measured values: BindingDB's records for doi:10.1021/acs.jmedchem.8b00159 (China Pharmaceutical University, 2018)
# Assays:
# [1] = target: T1, Isocitrate dehydrogenase [NADP] cytoplasmic (Homo sapiens, UniProt O75874); assay: Inhibition of IDH1 R132C mutant (unknown origin) assessed as reduction in NADPH consumption using alpha-KG as substrate incubated for 60 mins by diaphorase and resazurin dye based assay
# Target sequence in this assay (O75874 2-414 R132C limits assumed): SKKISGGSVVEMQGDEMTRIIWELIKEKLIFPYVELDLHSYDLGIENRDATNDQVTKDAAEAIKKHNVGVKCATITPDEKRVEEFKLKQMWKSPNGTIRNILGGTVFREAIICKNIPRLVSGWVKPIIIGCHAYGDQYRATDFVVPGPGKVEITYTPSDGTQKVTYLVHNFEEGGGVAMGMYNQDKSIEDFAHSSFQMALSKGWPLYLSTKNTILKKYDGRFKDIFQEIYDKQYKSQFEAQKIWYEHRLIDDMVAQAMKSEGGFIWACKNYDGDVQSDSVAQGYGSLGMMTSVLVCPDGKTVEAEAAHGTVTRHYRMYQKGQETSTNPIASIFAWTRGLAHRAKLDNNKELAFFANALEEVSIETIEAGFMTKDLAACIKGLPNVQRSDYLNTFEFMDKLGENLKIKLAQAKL
# [2] = target: T2, Isocitrate dehydrogenase [NADP], mitochondrial (Homo sapiens, UniProt P48735); assay: Inhibition of IDH2 R140Q mutant (unknown origin) assessed as reduction in NADPH consumption using alpha-KG as substrate incubated for 60 mins by diaphorase and resazurin dye based assay
# T2 sequence (P48735 whole entry): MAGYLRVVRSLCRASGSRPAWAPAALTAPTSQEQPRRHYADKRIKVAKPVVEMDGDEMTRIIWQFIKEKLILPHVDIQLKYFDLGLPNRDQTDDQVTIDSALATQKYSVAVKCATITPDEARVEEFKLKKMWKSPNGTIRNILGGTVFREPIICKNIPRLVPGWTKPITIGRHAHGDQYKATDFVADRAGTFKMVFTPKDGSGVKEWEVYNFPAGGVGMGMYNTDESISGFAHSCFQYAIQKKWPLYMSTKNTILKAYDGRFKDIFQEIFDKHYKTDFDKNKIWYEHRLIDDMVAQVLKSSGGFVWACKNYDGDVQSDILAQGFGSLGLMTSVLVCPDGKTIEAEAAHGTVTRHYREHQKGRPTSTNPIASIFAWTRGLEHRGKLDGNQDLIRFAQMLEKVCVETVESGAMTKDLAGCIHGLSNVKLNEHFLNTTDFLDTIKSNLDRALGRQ
# [3] = target: T1, Isocitrate dehydrogenase [NADP] cytoplasmic; assay: Inhibition of IDH1 R132H mutant (unknown origin) assessed as reduction in NADPH consumption using alpha-KG as substrate incubated for 60 mins by diaphorase and resazurin dye based assay
# Target sequence in this assay (O75874 2-414 R132H limits assumed): as the sequence (O75874 2-414 R132C limits assumed) above, with C131H counted along it
IC50 [1] [nM],IC50 [2] [nM],IC50 [3] [nM],SMILES
< 50,< 50,< 50,"FC1(F)CC(Nc2nc(NC3CC(F)(F)C3)nc(-c3nc(C(F)(F)F)cs3)n2)C1 [US10028961, Compound 128]"
< 50,< 50,< 50,"FC1(F)CCC(Nc2nc(NC3CCC(F)(F)CC3)nc(-c3cncc(C(F)(F)F)n3)n2)CC1 [US10028961, Compound 160]"
< 50,< 50,< 50,"CC(F)(F)c1cccc(-c2nc(NC3CCC(F)(F)C3)nc(NC3CCC(F)(F)C3)n2)n1 (configuration not stated) [US10028961, Compound 105]"
< 50,< 50,< 50,"C[C@@H](Nc1nc(N[C@H](C)C2CC2)nc(-n2ccc(C(F)(F)F)n2)n1)C1CC1 [US10028961, Compound 121]"
